Assay results from patent publication US11053241B2, “TYK2 inhibitors and uses thereof” (Nimbus Lakshmi, Inc., priority 2018, dated 2021).

Key:
[1] = biological target: human TYK2 (JH2domain-pseudokinase) (Homo sapiens (Human), UniProt P29597); assay: TYK2 JH2 Domain Binding Assay (KINOMEscan); settings: 11-point 3-fold dilution, top concentration 30,000 nM, duplicate
Experimental: Binding constants for compounds of the present invention against the JH2 domain were determined by the following protocol for a KINOMEscan® assay (DiscoveRx). A fusion protein of a partial length construct of human TYK2 (JH2domain-pseudokinase) (amino acids G556 to D888 based on reference sequence NP_003322.3) and the DNA binding domain of NFkB was expressed in transiently transfected HEK293 cells. From these HEK 293 cells, extracts were prepared in M-PER extraction buffer (Pierce) in the presence of Protease Inhibitor Cocktail Complete (Roche) and Phosphatase Inhibitor Cocktail Set II (Merck) per manufacturers' instructions. The TYK2(JH2domain-pseudokinase) fusion protein was labeled with a chimeric double-stranded DNA tag containing the NFkB binding site (5′-GGGAATTCCC-3′) fused to an amplicon for qPCR readout, which was added directly to the expression extract (the final concentration of DNA-tag in the binding reaction is 0.1 nM).
Streptavidin-coated magnetic beads (Dynal M280) were treated with a biotinylated small molecule ligand for 30 minutes at room temperature to generate affinity resins for the binding assays. The liganded beads were blocked with excess biotin and washed with blocking buffer (SeaBlock (Pierce), 1% BSA, 0.05% Tween 20, 1 mM DTT) to remove unbound ligand and to reduce nonspecific binding.
The binding reaction was assembled by combining 16 μl of DNA-tagged kinase extract, 3.8 μl liganded affinity beads, and 0.18 μl test compound (PBS/0.05% Tween 20/10 mM DTT/0.1% BSA/2 μg/ml sonicated salmon sperm DNA). Extracts were used directly in binding assays without any enzyme purification steps at a ≥10,000-fold overall stock dilution (final DNA-tagged enzyme concentration <0.1 nM). Extracts were loaded with DNA-tag and diluted into the binding reaction in a two step process. First extracts were diluted 1:100 in 1× binding buffer (PBS/0.05% Tween 20/10 mM DTT/0.1% BSA/2 μg/ml sonicated salmon sperm DNA) containing 10 nM DNA-tag. This dilution was allowed to equilibrate at room temperature for 15 minutes and then subsequently diluted 1:100 in 1× binding buffer. All reactions were performed in polypropylene 384-well plates. Each was a final volume of 0.02 mL. Assays were incubated with shaking for 1 hour at room temperature. Then the beads were pelleted and washed with wash buffer (1×PBS, 0.05% Tween 20) to remove displaced kinase and test compound. The washed based were re-suspended in elution buffer (1×PBS, 0.05% Tween 20, 0.5 μM non-biotinylated affinity ligand) and incubated at room temperature with shaking for 30 minutes. The kinase concentration in the eluates was measured by qPCR. qPCR reactions were assembled by adding 2.5 μL of kinase eluate to 7.5 μL of qPCR master mix containing 0.15 μM amplicon primers and 0.15 μM amplicon probe. The qPCR protocol consisted of a 10 minute hot start at 95° C., followed by 35 cycles of 95° C. for 15 seconds, 60° C. for 1 minute.
Test compounds were prepared as 111× stocks in 100% DMSO. Kd values were determined using an 11-point 3-fold compound dilution series with three DMSO control points. All compounds for Kd measurements are distributed by acoustic transfer (non-contact dispensing) in 100% DMSO. The compounds were then diluted directly into the assays such that the final concentration of DMSO was 0.9%. The Kd values were determined using a compound top concentration of 30,000 nM. Kd measurements were performed in duplicate.
Binding constants (Kds) were calculated with a standard dose-response curve using the Hill equation: […]
The Hill Slope was set to −1. Curves were fitted using a non-linear least square fit with the Levenberg-Marquardt algorithm (Levenberg, K., A method for the solution of certain non-linear problems in least squares, Q. Appl. Math. 2, 164-168 (1944)).

[2] = biological target: TYK2 kinase domain (JH1) (Homo sapiens (Human), UniProt P29597); assay: TYK2 Radioactive Kinase Assay; assay type: biochemical; settings: compound at 10 μM; ATP at 10 μM; 120 min at room temp
Experimental: (§1) Peptide substrate, [KKSRGDYMTMQIG], (20 μM) was prepared in reaction buffer (20 mM Hepes pH 7.5, 10 mM MgCl2, 1 mM EGTA, 0.02% Brij35, 0.02 mg/mL BSA, 0.1 mM […], 2 mM DTT, 1% DMSO). TYK2 (Invitrogen) kinase was added, followed by compounds in DMSO. ^33PATP was added to initiate the reaction in ATP at 10 μM. The kinase reaction was incubated for 120 min at room temp and reactions were spotted onto P81 ion exchange paper (Whatman #3698-915), and then washed extensively in 0.75% phosphoric acid, prior to reading the radioactivity counts. For JAK2 (Invitrogen) kinase assay the peptide substrate poly[Glu:Tyr](4:1), 0.2 mg/ml was used, in the reaction carried out the same as for TYK2.
(§2) The TYK2 and JAK2 radioactive kinase assay measures the percent inhibition at the TYK2 kinase domain (JH1) and the percent inhibition at the JAK2 kinase domain (JH1). Results of the assay are expressed as percent inhibition at 10 μM.

[3] = biological target: JAK2 kinase domain (JH1) (Homo sapiens (Human), UniProt O60674); assay: JAK2 Radioactive Kinase Assay; assay type: biochemical; settings: compound at 10 μM; ATP at 10 μM; substrate poly[Glu:Tyr](4:1)
Experimental: as §1, §2

Chain of TYK2 kinase domain (JH1) (P29597 897-1176): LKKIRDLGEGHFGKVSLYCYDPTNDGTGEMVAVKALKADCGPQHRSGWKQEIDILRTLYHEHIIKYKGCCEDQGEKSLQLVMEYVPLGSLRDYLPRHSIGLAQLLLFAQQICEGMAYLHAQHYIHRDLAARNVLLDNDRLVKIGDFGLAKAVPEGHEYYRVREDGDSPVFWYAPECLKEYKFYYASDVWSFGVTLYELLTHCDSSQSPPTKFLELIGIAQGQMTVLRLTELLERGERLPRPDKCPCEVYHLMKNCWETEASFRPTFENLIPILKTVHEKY
Chain of JAK2 kinase domain (JH1) (O60674 849-1124): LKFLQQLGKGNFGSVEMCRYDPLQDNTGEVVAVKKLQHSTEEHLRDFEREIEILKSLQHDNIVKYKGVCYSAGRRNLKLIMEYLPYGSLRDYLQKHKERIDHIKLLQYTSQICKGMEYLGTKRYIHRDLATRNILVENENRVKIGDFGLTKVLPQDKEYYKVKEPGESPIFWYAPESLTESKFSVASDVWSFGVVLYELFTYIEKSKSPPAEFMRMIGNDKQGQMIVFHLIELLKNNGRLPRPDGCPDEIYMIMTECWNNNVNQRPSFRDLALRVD
Chain of human TYK2 (JH2domain-pseudokinase) (P29597 556-888): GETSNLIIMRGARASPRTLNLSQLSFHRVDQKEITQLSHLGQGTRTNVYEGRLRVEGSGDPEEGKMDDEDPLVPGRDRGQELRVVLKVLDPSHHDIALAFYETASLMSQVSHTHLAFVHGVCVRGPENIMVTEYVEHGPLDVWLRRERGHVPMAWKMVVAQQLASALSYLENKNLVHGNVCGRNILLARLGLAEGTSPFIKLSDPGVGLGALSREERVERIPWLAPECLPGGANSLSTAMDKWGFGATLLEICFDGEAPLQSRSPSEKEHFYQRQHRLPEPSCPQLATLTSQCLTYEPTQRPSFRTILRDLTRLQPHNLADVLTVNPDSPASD

Structure (SMILES) | Kd [1] | inhibition at 10 µM [2] | inhibition at 10 µM [3]
[2H]C([2H])([2H])NC(=O)c1cnc(NC(=O)C2CC2)c2[nH]c(-c3ccccc3)cc12 [Compound I-3, 7-(cyclopropanecarboxamido)-N-(methyl-d3)-2-phenyl-1H-pyrrolo[2,3-c]pyridine-4-carboxamide] | 0.2 to 1 nM | < 50% | < 50%
CNC(=O)c1cnc(NC(=O)C2CC2)c2[nH]c(-c3ccccc3C3(S(C)(=O)=O)CC3)cc12 [Compound I-5, 7-(cyclopropanecarboxamido)-N-methyl-2-(2-(1-(methylsulfonyl)cyclopropyl)phenyl)-1H-pyrrolo[2,3-c]pyridine-4-carboxamide] | 1 to 10 nM | < 50% | < 50%
[2H]C([2H])([2H])NC(=O)c1cnc(NC(=O)C2CC2)c2[nH]c(-c3cccc(-c4ncn(C)n4)c3)cc12 [Compound I-6, 7-(cyclopropanecarboxamido)-N-(methyl-d3)-2-(3-(1-methyl-1H-1,2,4-triazol-3-yl)phenyl)-1H-pyrrolo[2,3-c]pyridine-4-carboxamide] | < 0.2 nM | < 50% | < 50%
CNC(=O)c1cnc(NC(=O)C2CC2)c2[nH]c(-c3cccc(-n4ccc(C)n4)c3)cc12 [Compound I-7, 7-(cyclopropanecarboxamido)-N-methyl-2-(3-(3-methyl-1H-pyrazol-1-yl)phenyl)-1H-pyrrolo[2,3-c]pyridine-4-carboxamide] | 0.2 to 1 nM | < 50% | < 50%
CNC(=O)c1cnc(NC(=O)C2CC2)c2[nH]c(-c3cccc(-n4nccn4)c3)cc12 [Compound I-8, 2-(3-(2H-1,2,3-triazol-2-yl)phenyl)-7-(cyclopropanecarboxamido)-N-methyl-1H-pyrrolo[2,3-c]pyridine-4-carboxamide] | 1 to 10 nM | < 50% | < 50%
CNC(=O)c1cnc(NC(=O)C2CC2)c2[nH]c(-c3ccc(C4=NC(C)(C)CO4)cc3OC)cc12 [Compound I-9, 7-(cyclopropanecarboxamido)-2-(4-(4,4-dimethyl-4,5-dihydrooxazol-2-yl)-2-methoxyphenyl)-N-methyl-1H-pyrrolo[2,3-c]pyridine-4-carboxamide] | 0.2 to 1 nM | < 50% | < 50%
CNC(=O)c1cnc(NC(=O)C2CC2)c2[nH]c(-c3cc(-c4csc(C)n4)ccn3)cc12 [Compound I-10, 7-(cyclopropanecarboxamido)-N-methyl-2-(4-(2-methylthiazol-4-yl)pyridin-2-yl)-1H-pyrrolo[2,3-c]pyridine-4-carboxamide] | 0.2 to 1 nM | < 50% | < 50%
CNC(=O)c1cnc(NC(=O)C2CC2)c2[nH]c(-c3cccc(C4=NC(C)(C)CS4)c3)cc12 [Compound I-11, 7-(cyclopropanecarboxamido)-2-(3-(4,4-dimethyl-4,5-dihydrothiazol-2-yl)phenyl)-N-methyl-1H-pyrrolo[2,3-c]pyridine-4-carboxamide] | 0.2 to 1 nM | < 50% | < 50%
CNC(=O)c1cnc(NC(=O)C2CC2)c2[nH]c(-c3cc(-c4ncn(C)n4)ccn3)cc12 [Compound I-13, 7-(cyclopropanecarboxamido)-N-methyl-2-(4-(1-methyl-1H-1,2,4-triazol-3-yl)pyridin-2-yl)-1H-pyrrolo[2,3-c]pyridine-4-carboxamide] | < 0.2 nM | < 50% | < 50%
CNC(=O)c1cnc(NC(=O)C2CC2)c2[nH]c(-c3ccc4nc(C)n(C)c4c3F)cc12 [Compound I-92, 7-(cyclopropanecarboxamido)-2-(7-fluoro-1,2-dimethyl-1H-benzo[d]imidazol-6-yl)-N-methyl-1H-pyrrolo[2,3-c]pyridine-4-carboxamide] | < 0.2 nM | – | –
CNC(=O)c1cnc(Nc2ccn(C)n2)c2[nH]c(-c3ccccc3)cc12 [Compound I-93, N-methyl-7-((1-methyl-1H-pyrazol-3-yl)amino)-2-phenyl-1H-pyrrolo[2,3-c]pyridine-4-carboxamide] | 0.2 to 1 nM | – | –
CNC(=O)c1cnc(NC(=O)C2CC2)c2[nH]c(-c3cccc([C@H]4C[C@H](OC)C4)c3F)cc12 [Compound I-94, 7-(cyclopropanecarboxamido)-2-(2-fluoro-3-((1r,3r)-3-methoxycyclobutyl)phenyl)-N-methyl-1H-pyrrolo[2,3-c]pyridine-4-carboxamide] | < 0.2 nM | – | –
CNC(=O)c1cnc(NC(=O)C2CC2)c2[nH]c(-c3cccc(C4CCCO4)c3F)cc12 (stereo not shown) [Compound I-95, 7-(cyclopropanecarboxamido)-2-(2-fluoro-3-(tetrahydrofuran-2-yl)phenyl)-N-methyl-1H-pyrrolo[2,3-c]pyridine-4-carboxamide] | < 0.2 nM | – | –
CNC(=O)c1cnc(NC(=O)C2CC2)c2[nH]c(N3CCCCC3)cc12 [Compound I-96, 7-(cyclopropanecarboxamido)-N-methyl-2-(piperidin-1-yl)-1H-pyrrolo[2,3-c]pyridine-4-carboxamide] | > 10 nM | – | –
CNC(=O)c1cnc(Nc2ccn(C)n2)c2[nH]c(-c3cccc(-c4cnn(C)c4)c3F)cc12 [Compound I-97, 2-(2-fluoro-3-(1-methyl-1H-pyrazol-4-yl)phenyl)-N-methyl-7-((1-methyl-1H-pyrazol-3-yl)amino)-1H-pyrrolo[2,3-c]pyridine-4-carboxamide] | < 0.2 nM | – | –
CNC(=O)c1cnc(NC(=O)C2CC2)c2[nH]c(-c3ccc(C(=O)N4CC(F)(F)C4)cc3F)cc12 [Compound I-98, 7-(cyclopropanecarboxamido)-2-(4-(3,3-difluoroazetidine-1-carbonyl)-2-fluorophenyl)-N-methyl-1H-pyrrolo[2,3-c]pyridine-4-carboxamide] | < 0.2 nM | – | –
CNC(=O)c1cnc(Nc2ccn(C)n2)c2[nH]c(-c3cccc(-c4cnc(C)o4)c3F)cc12 [Compound I-99, 2-(2-fluoro-3-(2-methyloxazol-5-yl)phenyl)-N-methyl-7-((1-methyl-1H-pyrazol-3-yl)amino)-1H-pyrrolo[2,3-c]pyridine-4-carboxamide] | < 0.2 nM | – | –
CNC(=O)c1cnc(Nc2ccn(C)n2)c2[nH]c(-c3cccc(-c4cn5c(n4)COCC5)c3F)cc12 [Compound I-100, 2-(3-(5,6-dihydro-8H-imidazo[2,1-c][1,4]oxazin-2-yl)-2-fluorophenyl)-N-methyl-7-((1-methyl-1H-pyrazol-3-yl)amino)-1H-pyrrolo[2,3-c]pyridine-4-carboxamide] | < 0.2 nM | – | –
CNC(=O)c1cnc(NC(=O)C2CC2)c2[nH]c(-c3ccc(-c4ccn(C)n4)cc3F)cc12 [Compound I-101] | 0.2 to 1 nM | – | –
